Measurements from patent US20080317876A1, “USE OF A MAGNESIUM ISOTOPE FOR TREATING HYPOXIA AND A MEDICAMENT COMPRISING THE SAME” (priority 2007, published 2008).
≈ marks a conversion by molar mass, not a printed value.

Legend:
[1] = unmodified C60-fullerene; cited from earlier work
Cationite capacity = assay type: physicochemical
[2] = test system: heart muscle tissue (rat myocardium) under hypoxia; assay type: in vivo
Method: Same tests were also performed in inhalation hypoxia model specified below (FIG. 14-16).
The following in vivo experimental hypoxia models were employed:
(1) Medicinal hypoxia syndrome A (1-methylnicotineamide (MNA), 10-20 mg/kg i.v. once per 24 hrs); […] (2) Medicinal hypoxia syndrome B (DXR 60-80 mg/kg i.v. once per 24 hrs); (3) The oxygen depleted inhalation model (10-20 day long exposition of rats to the artificial gas mixture to breath with, 12-16% oxygen/84-88% nitrogen, v/v).
Male adult Wistar Albino Glaxo rats (180-220 gms) were used, 3-4 animals per each experimental point.

[3] = test system: heart muscle mitochondria membranes; assay: Retention of the drug by heart muscle mitochondria membranes after a single i.v. injection; assay type: in vivo

| Compound | solubility [1] | cationite capacities (Cationite capacity) | protecting the heart muscle tissue from the damaging impact promoted by hypoxia ([2]; hypoxia of any sort, even at extra low doses) | safety of long term multiple administration of extra low doses ([2]; in vivo) | effect in medicinal hypoxic cardiotoxicity cases (DXR, MNA) ([2]; long term multiple administration, extra low doses) | time the drug molecule is retained by heart muscle mitochondria membranes [3] |
| --- | --- | --- | --- | --- | --- | --- |
| c12c3c4c5c1c1c6c7c2c2c8c3c3c9c4c4c%10c5c5c1c1c6c6c%11c7c2c2c7c8c3c3c8c9c4c4c9c%10c5c5c1c1c6c6c%11c2c2c7c3c3c8c4c4c9c5c1c1c6c2c3c41 [C60-fullerene] | 1.3e-05 ng/mL (≈ 1.8e-05 nM) |  |  |  |  |  |
| fullerene (C60)-2-(butadiene-1-yl)tetra(o-γ-aminobutyryl-o-phtalyl)ferroporphyrin [PMC16] |  | 320-370 meqv/mmol | efficient | totally safe | marked prophylactic and therapeutic effect | not less than a week |
